Results from US20240148900A1, “IMMUNOSTIMULATORY CYCLIC DI-NUCLEOTIDE DELIVERY SYSTEM COMPOSITIONS AND METHOD OF USE THEREOF” (VIRGINIA COMMONWEALTH UNIVERSITY, priority 2021, published 2024).

Legend:
[1] = Stability of CDG in 10% FBS-supplemented cell culture medium; type: in vitro ADME; conditions: 7 days in cell culture medium with 10% serum, 37° C., absorption at 254 nm
Excerpt: FIG. 1A-H. Characterization of STING-NVs. (a) UV-vis absorbance spectra of PEG-b-PLA NPs, 5c-i-motif DNA, and 5c-NPs. […] Lane legends: 1: 25 bp DNA ladder; 2: 9C-i-motif; 3: 3C-NPs; 4: 5C-NPs; 5: 7C-NPs; 6: 9C-NPs. (c) DLS graphs showing the hydrodynamic diameters of 5C-NPs (79±34 nm, PDI 0.157) and STING-NVs (81±32 nm, PDI 0.131). (d) A TEM image of STING-NVs. (e) Zeta potential of blank NPs, CDG-loaded NPs, and Lipo-CDG. STING-NVs: CDG-loaded 5C-NPs. (f) Stability of free CDG and CDG loaded in STING-NVs over 7-day incubation in 10% FBS-supplemented cell culture medium (37° C.). A254nm: 254 nm absorption from CDG; A560nm: 560 nm absorption from medium as an internal reference. (g, h) MST traces (g) and fitting curve (h) of the kinetic interaction between 5C-NPs and CDG at pH 7.4. Data represent mean±standard deviation (SD) (n=3).
The ability of STING-NVs to promote the biostability of CDG is presumably due to the steric hindrance of i-motif-NPs that prevent the access of nucleases. Using HPLC and microscale thermophoresis (MST), we further studied the binding of CDG with 5C-i-motifs, which is the basis for CDG loading into i-motif-modified NPs. In HPLC, relative to free CDG and 5C-i-motif, the delayed elution time of physically mixed CDG and 5C-i-motif indicated the complexation of CDG and 5C-i-motif (FIG. 10). […]

[2] = test system: RAW264.7 macrophages; experiment: Cell uptake of FluoCDG by flow cytometry; type: cell-based, murine; conditions: FluoCDG 0.5 μg/mL; free CDG over 2 h, formulations 0.5 h post incubation
Protocol: CDG release from STING-NVs. First, STING-NVs were dispersed in 1 mL of 1×PBS at different pH and agitated at 200 rpm. Then the mixture was ultra-filtrated at each hour point. The filtrate was taken for CDG detection, and the same volume of fresh buffer was added back to the residual mixture. The amount of released CDG in the filtrate was determined by measuring the absorption at 254 nm using a UV-Vis spectrometer. Lipo-CDG Synthesis. DOTAP, cholesterol, and DSPE-PEG(2000) were purchased from Avanti Polar Lipids. Lipids were mixed at molar ratios of 1:1:0.2 DOTAP:cholesterol:DSPE-PEG(2000). Lipid mixtures were dried under a nitrogen stream in glass test tubes. The resulting lipid films were placed in a desiccation system overnight. […] The CDG content of the liposomes was determined by measuring the absorbance peak of the liposomes at 254 nm, corresponding to the maximum absorbance of CDG, subtracting the lipid contribution to absorbance at this wavelength. […] Secreted IFN-α was quantified with the LumiKine Xpress mIFN-α enzyme-linked immunosorbent assay kit (InvivoGen). Secreted IL-6 and IL-12 were quantified with the Mouse IL-6 Quantikine™ ELISA Kit (R&D Systems). […] Cells were analyzed for fluorescein signal (from fluorescein-modified CDG) on the CytoFLEX LX (Beckman Coulter) flow cytometer.

## Nc1nc2c(ncn2[C@@H]2O[C@@H]3COP(=O)(O)O[C@H]4[C@@H](O)[C@H](n5cnc6c(=O)[nH]c(N)nc65)O[C@@H]4COP(=O)(O)O[C@H]3[C@H]2O)c(=O)[nH]1 [free CDG, cyclic dimeric guanosine monophosphate]
[1]
  intact CDG: 2.3%
[2]
  FluoCDG fluorescence signal enhancement: only slight FluoCDG signal enhancement
